Measurements as given in patent publication US20240016773A1, “COMPOSITIONS AND METHODS FOR DIAGNOSIS AND TREATMENT OF CONDITIONS RELATED TO AGING” (EPITRACKER, INC., priority 2018, published 2024).

Key:
[1] = test system: BT system: peripheral blood mononuclear cells, B cells (α-IgM, TCR ligands); experiment: BioMAP Diversity PLUS, BT system; assay type: cell-based, human
Source text: (§1) The Diversity PLUS panel allows test agent characterization in an unbiased way across a broad set of systems modeling various human disease states. These systems are designed to model complex human tissue and disease biology of the vasculature, skin, lung, and inflammatory tissues. Quantitative measurements of 148 biomarker activities across this broad panel, along with comparative analysis of biological activities from known bioactive agents, were used to predict and compare the efficacy and function of each selected compound at four concentrations (740 nm and 2.2, 6.7 and 20 μM).
(§2) BioMAP systems are constructed with one or more primary cell types from healthy human donors, with stimuli (such as cytokines or growth factors) added to capture relevant signaling networks that naturally occur in human tissue or pathological conditions. Vascular biology is modeled in both a Th1 (3C system) and a Th2 (4H system) inflammatory environment, as well as in a Th1 inflammatory state specific to arterial smooth muscle cells (CASM3C system). Additional systems recapitulate aspects of the systemic immune response including monocyte-driven Th1 inflammation (LPS system) or T cell stimulation (SAg system), chronic Th1 inflammation driven by macrophage activation (lMphg system) and the T cell-dependent activation of B cells that occurs in germinal centers (BT system). The BE3C system (Th1) and the BF4T system (Th2) represent airway inflammation of the lung, while the MyoF system models myofibroblast-lung tissue remodeling. Lastly, skin biology is addressed in the KF3CT system modeling Th1 cutaneous inflammation and the HDF3CGF system modeling wound healing.
(§3) Each test agent generates a signature BioMAP profile that is created from the changes in protein biomarker readouts within individual system environments. Biomarker readouts (7-17 per system) are selected for therapeutic and biological relevance, are predictive for disease outcomes or specific drug effects and are validated using agents with known mechanism of action (MoA). Each readout is measured quantitatively by immune-based methods that detect protein (e.g., ELISA) or functional assays that measure proliferation and viability. BioMAP readouts are diverse and include cell surface receptors, cytokines, chemokines, matrix molecules and enzymes. In total, the Diversity PLUS panel contains 148 biomarker readouts that capture biological changes that occur within the physiological context of the particular BioMAP system. Specific BioMAP activities have been correlated to in vivo biology, and multiparameter BioMAP profiles have been used to distinguish compounds based on MoA and target selectivity across diverse physiological systems.
(§4) Activated BioMAP systems were incubated with each compound for 24 to 72 hours. Protein-based biomarkers from activated cell systems were measured and compared with non-treated control systems.

[2] = test system: BF4T system: bronchial epithelial cells, dermal fibroblasts (IL-4, TNF-α); experiment: BioMAP Diversity PLUS, BF4T system; assay type: cell-based, human
Source text: as §1
(§5) BioMAP systems are constructed with one or more primary cell types from healthy human donors, with stimuli (such as cytokines or growth factors) added to capture relevant signaling networks that naturally occur in human tissue or pathological conditions. Vascular biology is modeled in both a Th1 (3C system) and a Th2 (4H system) inflammatory environment, as well as in a Th1 inflammatory state specific to arterial smooth muscle cells (CASM3C system). […]
as §3, with “Specific BioMAP activities have been correlated to in vivo biology, and multiparameter BioMAP profiles have been used to distinguish compounds based on MoA and target selectivity across diverse physiological systems.” left out
as §4

[3] = test system: CASM3C system: coronary artery smooth muscle cells (IL-1β, TNFα, IFNγ); experiment: BioMAP Diversity PLUS, CASM3C system; assay type: cell-based, human; conditions: 2.2 μM
Source text: as §1, with “μM). […]” for “μM).”
(§6) Each test agent generates a signature BioMAP profile that is created from the changes in protein biomarker readouts within individual system environments. Biomarker readouts (7-17 per system) are selected for therapeutic and biological relevance, are predictive for disease outcomes or specific drug effects and are validated using agents with known mechanism of action (MoA). Each readout is measured quantitatively by immune-based methods that detect protein (e.g., ELISA) or functional assays that measure proliferation and viability. BioMAP readouts are diverse and include cell surface receptors, cytokines, chemokines, matrix molecules and enzymes. […]

[4] = test system: HDF3CGF system: dermal fibroblasts (IFNγ, TNFα, IL-1β, EGF, bFGF, PDGF-BB); experiment: BioMAP Diversity PLUS, HDF3CGF system; assay type: cell-based, human; conditions: HDF3CGF
Source text: as §1, §2, §3, §4

[5] = test system: twelve different human primary cell systems mimicking various disease states; experiment: BioMAP Diversity PLUS panel, twelve human primary cell systems (summary by disease); assay type: cell-based; set-up: key: x: Significantly reduced cell-based biomarkers relevant to specific diseases and conditions
Source text: As a proof of concept, 14 compounds were selected from our compound library based on predicted efficacy in lowering inflammation in dolphins. Pure synthetic forms of these compounds were screened for cell-based activities (relevant to multiple aging-associated diseases and diseases that may impact longevity) using twelve different human primary cell systems mimicking various disease states (TABLE 4—description of primary human cell systems used to screen selected compounds in library).
as §1, §2, §3, §4

[6] = test system: LPS system: venular endothelial cells, peripheral blood mononuclear cells (TLR4 ligand); experiment: BioMAP Diversity PLUS, LPS system; assay type: cell-based, human
Source text: as §1, §2
as §6, with “enzymes. In total, the Diversity PLUS panel contains 148 biomarker readouts that capture biological changes that occur within the physiological context of the particular BioMAP system.” for “enzymes.”
as §4

[7] = test system: SAg system: venular endothelial cells, peripheral blood mononuclear cells (TCR ligands); experiment: BioMAP Diversity PLUS, SAg system; assay type: cell-based, human
Source text: as §1, §2, §3, §4

[8] = test system: BE3C system: bronchial epithelial cells (IL-1β, IFNγ, TNFα); experiment: BioMAP Diversity PLUS, BE3C system; assay type: cell-based, human
Source text: as §1, §5
as §6, with “enzymes. In total, the Diversity PLUS panel contains 148 biomarker readouts that capture biological changes that occur within the physiological context of the particular BioMAP system.” for “enzymes.”
as §4

[9] = test system: /Mphg system: macrophages, venular endothelial cells (TLR2 ligand); experiment: BioMAP Diversity PLUS, /Mphg system; assay type: cell-based, human; conditions: 20.0 μM
Source text: as §1, with “μM). […]” for “μM).”
as §6

CCCCCCC=CCCCCCCCCC(=O)O [10-heptadecanoate]
Significant log10 reduction vs nontreated controls: Secreted interleukin 2 (IL-2) ([1]; 6.7 μM): −0.11 log10
Significant log10 reduction vs nontreated controls: Eotaxin 3 (CCL26) ([2]; 2.2 μM): −0.10 log10
Significant log10 reduction vs nontreated controls: Eotaxin 3 (CCL26) ([2]; 6.7 μM): −0.13 log10
Significant log10 reduction vs nontreated controls: Eotaxin 3 (CCL26) ([2]; 20.0 μM): −0.31 log10
Significant log10 reduction vs nontreated controls: Serum amyloid A [3]: −0.13 log10
Significant log10 reduction vs nontreated controls: Macrophage colony-stimulating factor (M-CSF) ([4]; 6.7 μM): −0.1 log10
Significant log10 reduction vs nontreated controls: Vascular cell adhesion molecule 1 (VCAM-1) ([4]; 6.7 μM): −0.17 log10
Significantly reduced cell-based biomarkers relevant to: Allergy ([5]; Table 6): x
Significantly reduced cell-based biomarkers relevant to: Asthma ([5]; Table 6): x
Significantly reduced cell-based biomarkers relevant to: Autoimmunity ([5]; Table 6): x
Significantly reduced cell-based biomarkers relevant to: COPD ([5]; Table 6): x
Significantly reduced cell-based biomarkers relevant to: Hematological oncology ([5]; Table 6): x
Significantly reduced cell-based biomarkers relevant to: Pulmonary fibrosis ([5]; Table 6): x
Significantly reduced cell-based biomarkers relevant to: SLE ([5]; Table 6): x
Significantly reduced cell-based biomarkers relevant to: T-cell dependent B cell proliferation ([5]; Table 6): x
Significantly reduced cell-based biomarkers relevant to: Th2 type inflammation ([5]; Table 6): x
Significantly reduced cell-based biomarkers relevant to: Chronic inflammation ([5]; Table 7): x
Significantly reduced cell-based biomarkers relevant to: Psoriasis ([5]; Table 7): x
Significantly reduced cell-based biomarkers relevant to: Restenosis ([5]; Table 7): x
Significantly reduced cell-based biomarkers relevant to: Rheumatoid arthritis ([5]; Table 7): x
Significantly reduced cell-based biomarkers relevant to: Thl type inflammation ([5]; Table 7): x
Significantly reduced cell-based biomarkers relevant to: Fibrosis ([5]; Table 8): x
Significantly reduced cell-based biomarkers relevant to: Stromal biology in tumors ([5]; Table 8): x
Significantly reduced cell-based biomarkers relevant to: Vascular inflammation ([5]; Table 8): x

C=CCCCCCCCCC(=O)O [10-undecanoate]
Significant log10 reduction vs nontreated controls: Secreted interleukin 17A (IL-17A) ([1]; 2.2 μM): −0.25 log10
Significant log10 reduction vs nontreated controls: Secreted interleukin 17A (IL-17A) ([1]; 20.0 μM): −0.20 log10
Significant log10 reduction vs nontreated controls: Tumor necrosis factor alpha (TNFα) ([1]; 20.0 μM): −0.12 log10
Significant log10 reduction vs nontreated controls: Macrophage colony-stimulating factor (M-CSF) ([4]; 0.7 μM): −0.11 log10
Significant log10 reduction vs nontreated controls: Macrophage colony-stimulating factor (M-CSF) ([4]; 2.2 μM): −0.07 log10
Significant log10 reduction vs nontreated controls: Secreted prostaglandin E2 (PGE2) ([6]; 0.7 μM): −0.11 log10
Significant log10 reduction vs nontreated controls: Secreted prostaglandin E2 (PGE2) ([6]; 2.2 μM): −0.08 log10
Significant log10 reduction vs nontreated controls: Secreted prostaglandin E2 (PGE2) ([6]; 6.7 μM): −0.20 log10
Significant log10 reduction vs nontreated controls: CD40 ([6]; 20.0 μM): −0.11 log10
Significant log10 reduction vs nontreated controls: CD40 ([7]; 0.7 μM): −0.07 log10
Significant log10 reduction vs nontreated controls: CD40 ([7]; 2.2 μM): −0.14 log10
Significant log10 reduction vs nontreated controls: CD40 ([7]; 6.7 μM): −0.09 log10
Significant log10 reduction vs nontreated controls: CD40 ([7]; 20.0 μM): −0.11 log10
Significant log10 reduction vs nontreated controls: Tissue plasminogen activator (tPA) ([8]; 2.2 μM): −0.08 log10
Significant log10 reduction vs nontreated controls: Tissue plasminogen activator (tPA) ([8]; 6.7 μM): −0.11 log10
Significant log10 reduction vs nontreated controls: Tissue plasminogen activator (tPA) ([8]; 20.0 μM): −0.12 log10
Significant log10 reduction vs nontreated controls: Secreted interleukin 10 (IL-10) [9]: −0.21 log10
Significantly reduced cell-based biomarkers relevant to: Allergy ([5]; Table 6): x
Significantly reduced cell-based biomarkers relevant to: Asthma ([5]; Table 6): x
Significantly reduced cell-based biomarkers relevant to: Autoimmunity ([5]; Table 6): x
Significantly reduced cell-based biomarkers relevant to: Hematological oncology ([5]; Table 6): x
Significantly reduced cell-based biomarkers relevant to: SLE ([5]; Table 6): x
Significantly reduced cell-based biomarkers relevant to: T-cell dependent B cell proliferation ([5]; Table 6): x
Significantly reduced cell-based biomarkers relevant to: Atherosclerosis ([5]; Table 7): x
Significantly reduced cell-based biomarkers relevant to: Chronic inflammation ([5]; Table 7): x
Significantly reduced cell-based biomarkers relevant to: Metabolic diseases ([5]; Table 7): x
Significantly reduced cell-based biomarkers relevant to: Organ transplantation ([5]; Table 7): x
Significantly reduced cell-based biomarkers relevant to: Psoriasis ([5]; Table 7): x
Significantly reduced cell-based biomarkers relevant to: Restenosis ([5]; Table 7): x
Significantly reduced cell-based biomarkers relevant to: Rheumatoid arthritis ([5]; Table 7): x
Significantly reduced cell-based biomarkers relevant to: Thl type inflammation ([5]; Table 7): x
Significantly reduced cell-based biomarkers relevant to: Crohn's disease ([5]; Table 8): x
Significantly reduced cell-based biomarkers relevant to: Fibrosis ([5]; Table 8): x
Significantly reduced cell-based biomarkers relevant to: Hematological oncology ([5]; Table 8): x
Significantly reduced cell-based biomarkers relevant to: Pulmonary responses to respiratory infections ([5]; Table 8): x
Significantly reduced cell-based biomarkers relevant to: Sarcoidosis ([5]; Table 8): x
Significantly reduced cell-based biomarkers relevant to: Stromal biology in tumors ([5]; Table 8): x
